What all share (format): in vivo
The subject of one assay is Avena fatua. The experiment in a line: Test Example 4: herbicidal effect by application to foliage (diluvial soil, plastic box). As to conditions: for I: Application herbicide amount 320 g/ha. The method in brief: (§1)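 Emulsion-formulated compound, diluted to a predetermined g/ha dose, applied by small sprayer to leaves and stems of 14-day-old seedlings grown in sterilized diluvial soil. Effect rated on 0–5 herbicidal-ratio scale three weeks on.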

A further assay deals with Veronica persica. Described as above. As to conditions: for R: Application herbicide amount 320 g/ha. The method in brief: as §1
The subject of a further assay is Apera spica-venti. The assay is described as above. As to conditions: for L: Application herbicide amount 320 g/ha. The method in brief:
as §1

A further assay relates to Abutilon theophrasti. The description is as above. To be noted: for M: Application herbicide amount 320 g/ha. The method in brief:
as §1

A further assay deals with Digitaria ciliaris. Described as above. As to conditions: for F: Application herbicide amount 320 g/ha. The procedure, abridged:
as §1

In another assay the test system is Setaria viridis. The description is as above. To be noted: for G: Application herbicide amount 320 g/ha. The method in brief:
as §1

For assay [1], the system named is Echinochloa crus-galli var. crus-galli. Described as above. To be noted: for H: Application herbicide amount 320 g/ha. The method in brief: as §1
The test system of another assay is Alopecurus myosuroides. Described as above. To be noted: for J: Application herbicide amount 320 g/ha. The procedure, abridged:
as §1

The next assay has as its system Chenopodium album. Described as above. To be noted: for O: Application herbicide amount 320 g/ha. The procedure, abridged: as §1
The subject of a further assay is Lolium multiflorum Lam. Described as above. As to conditions: for K: Application herbicide amount 320 g/ha. The procedure, abridged: as §1
For a further assay, the system named is Galium spurium. The assay is described as above. As to conditions: for Q: Application herbicide amount 320 g/ha. The procedure, abridged: as §1
For the next assay, the system named is Cyperus difformis. The experiment in a line: Test Example 3: herbicidal effect by application to foliage (Wagner pot, water depth 0.1-0.5 cm). As to conditions: Nineteenth Table; for E (herbicidal effect grade): application to foliage, application herbicide amount 320 g/ha. The method in brief:
(§2)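 Alluvial soil in 1/10000 are Wagner pots, sown and grown 14 days in a 25–30 °C greenhouse. An emulsifiable concentrate diluted in water to the set dose (g/ha) was sprayed on stems and leaves. Effect scored three weeks later on a 0–5 scale: 5 = ≥90% herbicidal ratio, 0 = ≤5%.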

The next assay concerns Leptochloa chinensis. The description is as above. As to conditions: Nineteenth Table; for D (herbicidal effect grade): application to foliage, application herbicide amount 320 g/ha. The procedure, abridged: as §2
Assay [2] concerns Echinochloa crus-galli var. crus-galli. The assay is described as above. To be noted: Nineteenth Table; for H (herbicidal effect grade): application to foliage, application herbicide amount 320 g/ha. The method in brief:
as §2

Where [3] appears, read: application to foliage, application herbicide amount 320 g/ha.
The mark [4] stands for this setting: application herbicide amount 400 g/ha.

This note sets out measurements from patent publication US9708314B2, “Heterocyclic amide compound” (NISSAN CHEMICAL INDUSTRIES, LTD., priority 2013, dated 2017).

For the compound `CCCSc1nnc2c(C(=O)Nc3nnc(C)o3)ccc(C(F)(F)F)n12` [1-087], the I in the assay with Avena fatua was 3 (Herbicidal ratio of 40% or more and less than 70%). In addition, the R in the assay on Veronica persica was 4 (Herbicidal ratio of 70% or more and less than 90%). Moreover, the L in the assay with Apera spica-venti. is 2 (Herbicidal ratio of 20% or more and less than 40%). Also, in the assay with Abutilon theophrasti, the M is 5 (Herbicidal ratio of 90% or more (almost completely withered)). In addition, in the assay with Digitaria ciliaris, the F was 5 (Herbicidal ratio of 90% or more (almost completely withered)). For the same compound, the G in the assay on Setaria viridis is given as 5 (Herbicidal ratio of 90% or more (almost completely withered)). For the same compound, the H in assay [1] is 5 (Herbicidal ratio of 90% or more (almost completely withered)). Also, the J with Alopecurus myosuroides was 3 (Herbicidal ratio of 40% or more and less than 70%). The O in the assay on Chenopodium album is on record as 5 (Herbicidal ratio of 90% or more (almost completely withered)). Moreover, in the assay with Lolium multiflorum Lam., the K is 1 (Herbicidal ratio of 5% or more and less than 20%). For the same compound, the Q with Galium spurium was 1 (Herbicidal ratio of 5% or more and less than 20%). Further, the “E (herbicidal effect grade)” value with Cyperus difformis is recorded as 5 (Herbicidal ratio of 90% or more (almost completely withered)). The “D (herbicidal effect grade)” value with Leptochloa chinensis was 5 (Herbicidal ratio of 90% or more (almost completely withered)). For the same compound, the “H (herbicidal effect grade)” value in assay [2] is reported as 5 (Herbicidal ratio of 90% or more (almost completely withered)).

As for `CCc1nnc(NC(=O)c2ccc(C(F)(F)F)n3c(C(C)C)nnc23)o1` [1-005], the “I (Avena fatua) herbicidal effect” value with Avena fatua (setting [3]) was 1 (Herbicidal ratio of 5% or more and less than 20%). In the assay on Veronica persica (setting [3]), the “R (Veronica persica) herbicidal effect” value is 3 (Herbicidal ratio of 40% or more and less than 70%). In the assay on Apera spica-venti. (setting [3]), the “L (Apera spica-venti.) herbicidal effect” value is 0 (Herbicidal ratio of 5% or less (almost no effect)). Further, in the assay with Abutilon theophrasti (setting [3]), the “M (Abutilon theophrasti) herbicidal effect” value is 4 (Herbicidal ratio of 70% or more and less than 90%). In the assay with Digitaria ciliaris (setting [3]), the “F (Digitaria ciliaris) herbicidal effect” value is 3 (Herbicidal ratio of 40% or more and less than 70%). The “G (Setaria viridis) herbicidal effect” value in the assay on Setaria viridis (setting [3]) is 3 (Herbicidal ratio of 40% or more and less than 70%). Moreover, the “H (Echinochloa crus-galli var. crus-galli) herbicidal effect” value in assay [1] (setting [3]) was 4 (Herbicidal ratio of 70% or more and less than 90%). In addition, in the assay with Alopecurus myosuroides (setting [3]), the “J (Alopecurus myosuroides) herbicidal effect” value was 0 (Herbicidal ratio of 5% or less (almost no effect)). In the assay on Chenopodium album (setting [3]), the “O (Chenopodium album) herbicidal effect” value was 5 (Herbicidal ratio of 90% or more (almost completely withered)). Also, the “K (Lolium multiflorum Lam.) herbicidal effect” value with Lolium multiflorum Lam. (setting [3]) is reported as 0 (Herbicidal ratio of 5% or less (almost no effect)). Further, the “Q (Galium spurium) herbicidal effect” value with Galium spurium (setting [3]) is 0 (Herbicidal ratio of 5% or less (almost no effect)). For the same compound, the “E (Cyperus difformis) herbicidal ratio grade” value in the assay on Cyperus difformis (setting [4]) is 5 (Herbicidal ratio of 90% or more (almost completely withered)). For the same compound, the “D (Leptochloa chinensis) herbicidal ratio grade” value in the assay on Leptochloa chinensis (setting [4]) is 5 (Herbicidal ratio of 90% or more (almost completely withered)). The “H (Echinochloa crus-galli var. crus-galli) herbicidal ratio grade” value in [2] (setting [4]) is 2 (Herbicidal ratio of 20% or more and less than 40%).

As for `Cc1nnc(NC(=O)c2ccc(C(F)(F)F)n3c(-c4ccc(Cl)nc4)nnc23)o1` [1-054], the I in the assay on Avena fatua was 3 (Herbicidal ratio of 40% or more and less than 70%). Also, in the assay with Veronica persica, the R is 5 (Herbicidal ratio of 90% or more (almost completely withered)). The L in the assay with Apera spica-venti. was 3 (Herbicidal ratio of 40% or more and less than 70%). In addition, the M with Abutilon theophrasti is given as 5 (Herbicidal ratio of 90% or more (almost completely withered)). Moreover, the F in the assay with Digitaria ciliaris was 5 (Herbicidal ratio of 90% or more (almost completely withered)). Further, the G in the assay on Setaria viridis is 4 (Herbicidal ratio of 70% or more and less than 90%). The H in assay [1] is listed as 5 (Herbicidal ratio of 90% or more (almost completely withered)). Also, in the assay on Alopecurus myosuroides, the J is 3 (Herbicidal ratio of 40% or more and less than 70%). Also, in the assay on Chenopodium album, the O is on record as 5 (Herbicidal ratio of 90% or more (almost completely withered)). For the same compound, in the assay with Lolium multiflorum Lam., the K was 3 (Herbicidal ratio of 40% or more and less than 70%). Moreover, the Q with Galium spurium was 4 (Herbicidal ratio of 70% or more and less than 90%). In the assay with Cyperus difformis, the “E (herbicidal effect grade)” value is listed as 5 (Herbicidal ratio of 90% or more (almost completely withered)). Moreover, in the assay on Leptochloa chinensis, the “D (herbicidal effect grade)” value is listed as 5 (Herbicidal ratio of 90% or more (almost completely withered)). Moreover, the “H (herbicidal effect grade)” value in [2] was 5 (Herbicidal ratio of 90% or more (almost completely withered)).
